For one series, the target named is T1, ErbB2 (Homo sapiens, UniProt P04626).
T1 construct: endogenous in cells; host or cells: human embryonic stem cells (hESCs) grown in DC-HAIF
Briefly: Western blotting of ErbB2 autophosphorylation in starved/heregulin pulsed hESCs in DC-HAIF. In kind it is cell-based. An excerpt:
(§1) Colony and cell-counting assays confirmed that LongR3-IGF1 and HRG played the major roles in self-renewal and proliferation in the context of one of the embodiments of the present invention (FIG. 6D, FIG. 6E). Phosphorylation of IGF1R, IR, […], ErbB2, and ErbB3 was also observed in both steady-state DC-HAIF cultures, and in starved cultures that were pulsed with DC-HAIF (FIG. 6F).

The next series has as its system BG02 hESCs. Briefly: Proliferation of hESCs growing in conditioned medium (CM) with AG825. In kind it is cell-based.
Excerpt: FIGS. 6A-6F depict the inhibition of proliferation of BG02 cells grown in conditioned media (CM). […] The mean and range of normalized relative intensity is plotted (right).
as §1

A further series concerns BG01v cells. Nature of the series: Inhibition of proliferation of BG01v cells by ErbB tyrosine kinase inhibitors, alkaline phosphatase staining. It is filed as cell-based. The method, then:
To examine the effect of known inhibitors of ErbB tyrosine kinases in hESCs, BG01v cells were plated in 6 well trays on […]™ diluted at 1:1000, in defined culture medium (DC) containing 100 ng/mL LongR3-IGF1, 8 ng/mL FGF2 and 1 ng/mL Activin A. On the next day, DMSO (carrier control), 50 nM-20 μM AG1478 (an ErbB1 inhibitor), or 100 nM-20 μM AG879 (an ErbB2 inhibitor) was added with fresh medium. The cells were cultured for an additional 5 days, with daily media changes. The cultures were then fixed and stained for alkaline phosphatase activity.

A further series concerns R1 mouse ES cells. Briefly: Inhibition of ErbB1 and ErbB2 signaling in mouse ES cells, alkaline phosphatase staining. It is filed as cell-based. As for the experimental part:
AG1478 and AG879 were used to examine the role of HRG/ErbB signaling in mouse ES cells. R1 mouse ES cells were maintained in standard conditions in DMEM, 10% FBS, 10% KSR, 0.5 U/mL penicillin, 0.5 U/mL streptomycin, 1×NEAA, 1 mM sodium pyruvate, 1000 U/mL LIF (ESGRO), 0.1 mM β-ME, and were passaged with 0.5% trypsin/EDTA. 2×10^5 cells/well were plated in 6 well trays on […]™ diluted at 1:1000. The day after plating, DMSO (carrier control), 1-50 μM AG1478, or 1-50 μM AG879 was added with fresh medium. The cells were cultured an additional 8 days, with daily media changes. The cultures were then fixed and stained for alkaline phosphatase activity.

The next series deals with BG02 cells. Briefly: Suspension aggregates of BG02 cells in DC-HAIF with and without Y27632, cell counting. It is filed as cell-based, human. The method, then: To attenuate the loss of cells after initial passaging in suspension, an inhibitor of apoptosis was added to the medium. Cells were passaged as in Example 12, except that Y-27632, an inhibitor of p160-Rho-associated coiled-coil kinase (ROCK), was added to the medium.
Suspension aggregates of BG02 cells were formed by seeding 2×10^6 single cells in 6-well dishes in 3 mL DC-HAIF medium, at 100 rpm on a rotating platform in an incubator (Table 4, Experiment A). 10 μM Y27632 ROCK inhibitor was added to test wells for the course of the experiment and the cultures observed daily and counted after 24 hours (day 1) and after 4 or 5 days. […] Cell counting confirmed that more viable cells were present in the presence of inhibitor (Table 4, Experiment A). This difference in cell number persisted throughout the course of the culture period, with more cells also observed on day 4, compared to cultures without inhibitor. As with previous suspension culture experiments, cells exposed to Y27632 could also be serially passaged, and maintained in an undifferentiated state (not shown). […]
Because of the enhanced survival and aggregation observed in the presence of Y27632, an experiment was performed to examine if it was possible to reduce the number of cells used to seed suspension cultures (Table 4, Experiment C). […] To determine if addition of a ROCK inhibitor would allow cell seeding at lower densities, a range of cell concentrations (from about 2×10^6 total cells down to about 1×10^5 total cells was used to seed suspension cultures in 6-well trays cells in 3 mL DC-HAIF. 10 μM Y27632 was added to all conditions, and the cell number and viability assessed on day 5. Successful aggregation and expansion was observed even at low seeding densities. An approximately 13 fold expansion of viable cells was observed even in cultures that were only seeded with 1×10^5 cells. Inhibition of ROCK with Y27632 therefore facilitated initial survival of hESCs at much lower densities in this suspension system.

Series [1] has as its system hES-derived pancreatic epithelial and endocrine type cells. Briefly: Re-aggregation of dissociated stage 4 or stage 5 adherent cultures. The conditions noted are these: 10 μM. In kind it is cell-based, human. The method, then: Adherent cultures at either stage 4 (about d10-d14 into the differentiation protocol; pancreatic epithelial and endocrine type cells) or stage 5 (about day 16 to day 30 into the differentiation protocol; endocrine precursor and endocrine cells) were similarly dissociated into single cells, counted, and pelleted. The cell pellet was then resuspended in DMEM CMRL supplemented Pen/Strep and GLUTAMAX™, and 1X B27-supplement and DNase (50-100 μg/mL, Roche Diagnostics) and 0-2% FBS. […] Cells were equally distributed into 6-well plates and placed on a rotating platform at 100 rpm to 140 rpm form 4 hours to overnight substantially as described above.

Another series deals with ES cells. Nature of the series: Suspension cultures in various media, cell counting. In kind it is cell-based. As to conditions: in all conditions (HAIF, HAI, HI). The method, then:
To determine if suspensions of ES cells could be cultured in the absence of FGF2 and/or Activin A, ES cells were cultured in a variety of media, with and without these factors. […] In addition, the cells in each media were successfully passaged with no morphological signs of differentiation.

The subject of another series is hESCs. Briefly: hESC proliferation at physiological levels of insulin and IGF1, cell counting. In kind it is cell-based, human. As to conditions: titrated about 0.2 to about 200 ng/mL, counting after 5 days. The method, then:
Essentially all of the reported culture conditions for hESCs to date include supraphysiological levels of insulin, which can stimulate both IR and IGF1R. To distinguish the activities that insulin and insulin-substitutes exert, compared to IGF1, hESCs are cultured in defined media conditions in physiological levels of these growth factors. The concentrations of insulin and IGF1 are titrated from about 0.2 to about 200 ng/mL and cell proliferation is monitored by counting cells after 5 days. Cultures that expand successfully are serially passaged 5 times.

For series [2], the system named is hES-derived cell aggregates. Nature of the series: QPCR of endocrine progenitor markers after stage 3 with different noggin concentrations. In kind it is cell-based, human. As to conditions: lower concentration (25 ng/mL vs 50 ng/mL) in stage 3; any given cell density. As for the experimental part: Human ES cell aggregates and hES-derived cell aggregates, including d0 cell aggregates produced directly in differentiation media, were generated substantially as described above. After about five (5) days of differentiation through stages 1 and 2, the differentiating cell aggregates were pooled and re-aliquoted into individual wells at different seeding densities, e.g., a 28 mL suspension of foregut endoderm stage cell aggregate suspension was seeded or re-aliquoted at 4, 6, 8 or 10 mL per well (a 2.5-fold range of cell densities). This cell distribution was carried out in duplicate and one set of wells was fed with a stage 3 media (DMEM/PenStrep/GLUTAMAX™+1% B27 supplement (vol/vol)+0.25 uM KAAD-cyclopamine+3 nM TTNPB) containing noggin at 50 ng/mL and the other set of wells contained noggin at 25 ng/mL. Stage 3 proceeded for 3 days with daily media exchange. Cell samples were taken in duplicate for real-time QPCR analysis at the end of the three days of stage 3 (or about day 8) and again at after stage 4 (or about day 14).

[3] abbreviates: morphology, alkaline phosphatase activity.

“Also recorded” adds a separate entry of the source.

T1 sequence (P04626 23-1255): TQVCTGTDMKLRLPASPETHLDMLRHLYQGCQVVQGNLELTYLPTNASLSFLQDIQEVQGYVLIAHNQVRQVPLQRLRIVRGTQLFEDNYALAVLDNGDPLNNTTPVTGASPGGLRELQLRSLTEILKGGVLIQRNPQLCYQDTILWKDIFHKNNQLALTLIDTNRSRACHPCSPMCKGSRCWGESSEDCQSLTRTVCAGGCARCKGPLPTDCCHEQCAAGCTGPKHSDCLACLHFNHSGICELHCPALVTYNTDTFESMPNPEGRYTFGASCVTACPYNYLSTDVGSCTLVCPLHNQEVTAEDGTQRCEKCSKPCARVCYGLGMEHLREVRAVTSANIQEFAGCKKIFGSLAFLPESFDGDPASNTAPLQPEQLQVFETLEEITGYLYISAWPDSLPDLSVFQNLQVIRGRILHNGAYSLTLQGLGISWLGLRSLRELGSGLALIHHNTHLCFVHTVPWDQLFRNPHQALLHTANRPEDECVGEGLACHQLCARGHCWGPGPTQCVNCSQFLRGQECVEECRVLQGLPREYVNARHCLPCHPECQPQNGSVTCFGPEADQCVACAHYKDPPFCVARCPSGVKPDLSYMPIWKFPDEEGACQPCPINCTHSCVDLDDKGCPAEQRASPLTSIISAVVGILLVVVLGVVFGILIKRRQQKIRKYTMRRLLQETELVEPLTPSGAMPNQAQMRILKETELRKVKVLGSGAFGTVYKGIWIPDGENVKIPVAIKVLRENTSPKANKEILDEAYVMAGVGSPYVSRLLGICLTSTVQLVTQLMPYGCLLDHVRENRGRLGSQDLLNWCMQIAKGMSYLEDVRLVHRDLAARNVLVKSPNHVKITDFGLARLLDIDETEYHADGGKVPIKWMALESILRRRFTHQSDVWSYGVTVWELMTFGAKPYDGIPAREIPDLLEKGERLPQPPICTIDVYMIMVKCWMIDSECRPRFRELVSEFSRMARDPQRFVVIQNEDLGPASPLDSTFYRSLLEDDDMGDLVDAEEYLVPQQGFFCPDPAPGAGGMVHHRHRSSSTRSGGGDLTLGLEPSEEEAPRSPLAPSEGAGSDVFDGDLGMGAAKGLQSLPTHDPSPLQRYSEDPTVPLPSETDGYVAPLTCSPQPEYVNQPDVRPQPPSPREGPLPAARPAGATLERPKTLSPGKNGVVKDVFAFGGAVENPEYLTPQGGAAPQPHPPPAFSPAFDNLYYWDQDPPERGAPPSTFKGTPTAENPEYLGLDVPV

Take `COc1cc(/C=C(\C#N)C(N)=O)cc(CSc2nc3ccccc3s2)c1O` [AG825]: at ErbB2, the “autophosphorylation of ErbB2 at tyrosine-1248” value is “inhibited autophosphorylation of ErbB2 at tyrosine-1248; also recorded: inhibits ErbB2 Y1248 phosphorylation”. Also, in the series with BG02 hESCs, the cell death result was “without widespread cell death”. For the same molecule, the “proliferation of hESCs” value in the series with BG02 hESCs (50 μM) was “significantly inhibited proliferation”.

Turning to `CC(C)(C)c1cc(/C=C(\C#N)C(N)=S)cc(C(C)(C)C)c1O` [AG879], the cell growth result is “substantially inhibited cell growth; also recorded: substantially slowed cell growth” with BG01v cells (5 μM, 5 days) and “substantially inhibited cell growth” in the series with R1 mouse ES cells (50 μM, 8 days). Besides, the cell death result with BG01v cells (20 μM) was “caused cell death”. For the same molecule, in the series with BG01v cells (setting [3]), the “differentiation of cultures grown in inhibitor” value was “did not appear to differentiate”. Further, the proliferation entry in the series on R1 mouse ES cells (20 μM, 8 days) is given as “may have slowed proliferation”. In addition, the “concentration required to inhibit proliferation, mESCs relative to BG01v cells” value in the series with R1 mouse ES cells (mESCs vs BG01v cells grown in defined conditions) is reported as roughly 10 ×. For the same molecule, in the series on R1 mouse ES cells (setting [3]), the “differentiation of mESCs grown in inhibitor” value is “did not appear to differentiate”.

Consider `COc1cc2ncnc(Nc3cccc(Cl)c3)c2cc1OC` [AG1478], for which the “effect on cell proliferation” value with BG01v cells (50 nM-20 μM, 5 days) is on record as “neither DMSO nor AG1478 (50 nM-20 μM) had an apparent affect on cell proliferation; also recorded: did not appear to affect proliferation”; in the series with R1 mouse ES cells (1-50 μM, 8 days, 10% FBS, 10% KSR, LIF) it was “no apparent affect on cell proliferation; also recorded: did not overtly inhibit proliferation”.

With `C[C@@H](N)[C@H]1CC[C@H](C(=O)Nc2ccncc2)CC1` [Y27632], the “initial survival and aggregation of hESCs in suspension culture” value in the series on BG02 cells (10 μM, compared to medium without inhibitor) was “much larger aggregates were formed; also recorded: enhanced initial survival and aggregation of hESCs; also recorded: enhancement of hESC aggregation”. Also, the “cell number when the aggregates were split again” value in the series on BG02 cells (Expt. A, compared to cultures without inhibitor) is “almost twice as many cells were observed”. Further, in the series with BG02 cells (suspension culture in the presence of Y27632), the “differentiation state, RT-PCR of pluripotency markers” value is reported as “remained undifferentiated”. Also, the cell survival entry in [1] is “supported cell survival”. Besides, the “yield of cells generated by day 5” value with ES cells was “increased the yield of cells”.

On to IGF1: insulin-like growth factor, for which the “expansion of hESC cultures” value with hESCs is “support the expansion of hESC cultures”.

Consider “insulin: protein that binds to the insulin receptor”, for which the “expansion of hESC cultures” value with hESCs was “do not”.

B1: noggin: recombinant human Noggin, BMP antagonist (protein, UniProt Q13253 28-232, looked up)
Noggin: QHYLHIRPAPSDNLPLVDLIEHPDPIFDPKEKDLNETLLRSLLGGHYDPGFMATSPPEDRPGGGGGAAGGAEDLAELDQLLRQRPSGAMPSEIKGLEFSEGLAQGKKQRLSKKLRRKLQMWLWSQTFCPVLYAWNDLGSRFWPRYVKVGSCFSKRSCSVPEGMVCKPSKSVHLTVLRWRCQRRGGQRCGWIPIQYPIISECKCSC
For B1, in series [2], the “endocrine progenitor cell types, expression of NGN3 and NKX2-2” value was “reduced expression of NGN3 and NKX2-2”.
